{"source": "patent US9981916B2", "about": "(Genentech, Inc., priority 2013, dated 2018)", "target": "T1, RORc ligand binding domain (Homo sapiens, UniProt P51449)", "T1 construct": "host or cells: E. coli", "T1 sequence (P51449 269-508 limits assumed)": "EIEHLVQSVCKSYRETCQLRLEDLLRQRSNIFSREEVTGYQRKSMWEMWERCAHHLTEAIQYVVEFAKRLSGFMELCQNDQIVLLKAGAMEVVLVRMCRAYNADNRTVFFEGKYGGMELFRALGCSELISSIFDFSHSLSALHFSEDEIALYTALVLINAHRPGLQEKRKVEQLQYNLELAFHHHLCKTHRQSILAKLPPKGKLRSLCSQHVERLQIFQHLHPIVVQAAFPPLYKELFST", "experiment": "In vitro RORc ligand binding assay (25-[3H]hydroxycholesterol displacement, filter binding)", "conditions": "6 nM 25-[3H]hydroxycholesterol, 0.6 ug/mL RORc receptor, 3 h at 25° C.", "procedure,_shortened": "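Compounds in 5% DMSO, either dose-response or screened at 1 and 10 uM, competed with 6 nM 25-[3H]hydroxycholesterol for 0.6 ug/mL RORc over 3 h at 25° C (HEPES pH 7.4, NaCl, MgCl2, DTT, BSA buffer). Bound tracer was filter-harvested and counted; nonspecific binding came from 1 uM 25-hydroxycholesterol.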"}
{"compound": "CC1(C)[C@@H]2CC[C@@]1(C(=O)NC1CCC1)c1nnc(-c3ccccc3F)cc12", "note": "[Example 333, (5S,8S)-N-cyclobutyl-3-(2-fluorophenyl)-9,9-dimethyl-5,6,7,8-tetrahydro-5,8-methanocinnoline-8-carboxamide]", "values": [{"measurement": "IC50", "value": 1500, "unit": "nM"}]}
{"compound": "CNC(=O)[C@]12CC[C@H](c3cc(-c4ccccc4F)nnc31)C2(C)C", "note": "[Example 334, (5S,8S)-3-(2-fluorophenyl)-N,9,9-trimethyl-5,6,7,8-tetrahydro-5,8-methanocinnoline-8-carboxamide]", "values": [{"measurement": "IC50", "value": 2100, "unit": "nM"}]}
{"compound": "Cc1c[nH]nc1C1CN(C(=O)[C@]23CC[C@H](c4cc(-c5ccccc5F)nnc42)C3(C)C)C1", "note": "[Example 335, ((5S,8S)-3-(2-fluorophenyl)-9,9-dimethyl-5,6,7,8-tetrahydro-5,8-methanocinnolin-8-yl)(3-(4-methyl-1H-pyrazol-3-yl)azetidin-1-yl)methanone]", "values": [{"measurement": "IC50", "value": 2800, "unit": "nM"}]}
{"compound": "Cc1nnc([C@@]23CC[C@@H](c4cc(Oc5c(F)cccc5F)nnc42)C3(C)C)o1", "note": "[Example 336, 2-((5R,8R)-3-(2,6-difluorophenoxy)-9,9-dimethyl-5,6,7,8-tetrahydro-5,8-methanocinnolin-8-yl)-5-methyl-1,3,4-oxadiazole]", "values": [{"measurement": "IC50", "value": 49, "unit": "nM"}]}
{"compound": "CC1(C)[C@H]2CC[C@]1(C(=O)N1CCC1)c1nnc(Oc3c(F)cccc3F)cc12", "note": "[Example 337, azetidin-1-yl((5R,8R)-3-(2,6-difluorophenoxy)-9,9-dimethyl-5,6,7,8-tetrahydro-5,8-methanocinnolin-8-yl)methanone]", "values": [{"measurement": "IC50", "value": 540, "unit": "nM"}]}
{"compound": "CC1(C)[C@H]2CC[C@]1(COCc1ccccc1)c1nnc(Oc3c(F)cccc3F)cc12", "note": "[Example 338, (5R,8R)-8-((benzyloxy)methyl)-3-(2,6-difluorophenoxy)-9,9-dimethyl-5,6,7,8-tetrahydro-5,8-methanocinnoline]", "values": [{"measurement": "IC50", "value": 66, "unit": "nM"}]}
{"compound": "CC(=O)OC[C@@]12CC[C@@H](c3cc(Oc4c(F)cccc4F)nnc31)C2(C)C", "note": "[Example 339, ((5R,8R)-3-(2,6-difluorophenoxy)-9,9-dimethyl-5,6,7,8-tetrahydro-5,8-methanocinnolin-8-yl)methyl acetate]", "values": [{"measurement": "IC50", "value": 100, "unit": "nM"}]}
{"compound": "CCN(C[C@]12CC[C@H](c3cc(-c4c(F)cccc4F)nnc31)C2(C)C)C(=O)CCC(N)=O", "note": "[Example 342, N1-(((5S,8R)-3-(2,6-difluorophenyl)-9,9-dimethyl-5,6,7,8-tetrahydro-5,8-methanocinnolin-8-yl)methyl)-N1-ethylsuccinamide]", "values": [{"measurement": "IC50", "value": 28, "unit": "nM"}]}
{"compound": "CCN(C[C@]12CC[C@H](c3cc(-c4c(F)cccc4F)nnc31)C2(C)C)C(=O)CCNC(N)=O", "note": "[Example 343, N-(((5S,8R)-3-(2,6-difluorophenyl)-9,9-dimethyl-5,6,7,8-tetrahydro-5,8-methanocinnolin-8-yl)methyl)-N-ethyl-3-ureidopropanamide]", "values": [{"measurement": "IC50", "value": 32, "unit": "nM"}]}
{"compound": "CCN(C[C@]12CC[C@H](c3cc(-c4c(F)cccc4F)nnc31)C2(C)C)C(=O)CCC(=O)N(C)C", "note": "[Example 344, N1-(((5S,8R)-3-(2,6-difluorophenyl)-9,9-dimethyl-5,6,7,8-tetrahydro-5,8-methanocinnolin-8-yl)methyl)-N1-ethyl-N4,N4-dimethylsuccinamide]", "values": [{"measurement": "IC50", "value": 31, "unit": "nM"}]}
{"compound": "CCN(C[C@@]12CC[C@@H](c3cc(-c4c(F)cccc4F)nnc31)C2(C)C)S(=O)(=O)CCC(F)(F)F", "note": "[Example 345, N-(((5R,8S)-3-(2,6-difluorophenyl)-9,9-dimethyl-5,6,7,8-tetrahydro-5,8-methanocinnolin-8-yl)methyl)-N-ethyl-3,3,3-trifluoropropane-1-sulfonamide]", "values": [{"measurement": "IC50", "value": 11, "unit": "nM"}]}
